In patent publication US11364227B2 (priority 2020, dated 2022):

Tests used:
ARDS induced thrombosis = test: Rat venous stasis (Wessler) model after LPS-induced lung injury (ARDS induced thrombosis); type: in vivo, Sprague-Dawley rats; conditions: 250 mg/kg oral gavage 3, 24, 48, 72 h post LPS instillation; rat venous stasis 30 min
Text: This study assessed the efficacy of ABC294640 to reduce the incidence of adverse thromboembolic events in situ in acute respiratory distress syndrome (ARDS) conditions using a rat venous stasis model. This assay is designed to measure thrombotic risks following LPS-induced lung injury. LPS-induced lung injury is one of the most commonly used rodent models for ARDS and was described to mimic the neutrophilic inflammatory response observed in ARDS patients. The mechanism of LPS-induced ARDS is based on damage to endothelial cells and a systemic inflammatory response. […]
Sprague-Dawley rats (male) weighing between 275 and 400 g were used for this study. […] The body weight was recorded before the instillation and 24, 48 and 72 hours post-instillation.
In this study, ARDS was induced by intratracheal instillation of LPS. […] The segment was then excised and its content scored. […]
• 1. Prior LPS or saline instillation, the functional respiratory parameters of all rat was assessed by whole-body plethysmography and SpO2 was evaluated on conscious rat with a collar probe pulse oximeter. […] The respiratory rate, the Penh and the inspiratory/expiratory time measurements was analyzed. • 2. […]
• 5. Rats were evaluated periodically to ensure animal well-being (general behavior and daily body weight). • 6. […] SpO2 and whole-body plethysmography were also evaluated 24, 48 and 72 hours post-instillation. • 8. […]

[1] = tested on: human bronchial epithelial cells (HBEC); conditions: highest concentration tested, 11.25 μg/ml
[2] = Physical description of opaganib drug substance (solubility, hygroscopicity); type: physicochemical
[3] = tested on: COVID-19 pneumonia (SARS-CoV-2); test: Randomized, double-blind, placebo-controlled Phase 2a study of opaganib in COVID-19 pneumonia; type: in vivo, human
Text: This was a phase 2a, proof of concept, multi-center randomized double-blind, parallel arm, placebo-controlled study. After informed consent was obtained, patients entered a screening phase for no more than 3 days, to determine eligibility. […] Treatment assignments remained blinded to the patient, investigator and hospital staff, as well as the sponsor. As there was no consensus for a definitive treatment specifically targeting the SARS-CoV-2 virus causing COVID-19 (Wilson, 2020), standard of care referred to regional, institutional or physician directed therapies, that were implemented during the COVID-19 pandemic.
Study drug was to be administered every day for 14 days (Day 1 to Day 14), unless the patient had been discharged from the hospital without requiring supplemental oxygen, in which case study drug would only be administered to Day 10.
Two patients were randomized in each group but not treated. […] Two patients in the opaganib arm experienced adverse events such that study drug was terminated, while one placebo patient was terminated due to an adverse event.
The primary efficacy endpoint calculated for each patient the area under the curve of the supplemental oxygen requirement through day 14, using the trapezoidal rule after subtracting the baseline oxygen requirement at each day. Days where no supplementary oxygen was needed, were recorded as 0. If several values of oxygen requirement (L/min) are recorded in a certain day, for the primary analysis the highest of these values were taken. In the primary analysis, for patients who die before Day 14, or require intubation and mechanical ventilation, missing daily values were assigned the maximal supplemental oxygen flow requirement of 8 L/min. For patients discharged from hospital on supplemental oxygen prior to Day 14, if no values were collected by the site after discharge, the oxygen requirement (L/min) on the day of discharge were to be assigned thereafter for each day to Day 14.
Supplemental oxygen requirement up to Day 14 was collected even if a patient discontinued treatment prior to Day 14 but continued in the study to Day 14. Further, it was assumed that loss to follow up such that vital status up to Day 14 were missing is unlikely. Therefore, the primary analysis assumed that in case that all supplemental oxygen values are missing after treatment discontinuation, the last value is carried forward—until Day 14, or death, if occurred before. A sensitivity analysis to the above missing data handling approach was performed using an AUC summary statistics approach, in which groups AUC is calculated from the estimated parameters of a Repeated-Measures model.
Within the mITT cohort, two subjects withdrew their consent due to grade 1 gastrointestinal AEs.

[4] = tested on: COVID-19 infection (SARS-CoV-2); test: Pilot / compassionate use study of opaganib in patients hospitalized with COVID-19 pneumonia; type: in vivo, human
Protocol: Patients entered a screening period of up to 1 week. Eligible patients entered the treatment period for up to 2 weeks. All participants were followed for 2 weeks after their last dose of study drug, at the end of the 2 week treatment period, or once they had 2 consecutive daily negative viral swabs for the COVID-19 virus or at after premature drug discontinuation prior to Day 14. The maximum duration of study participation was 35 days […].
Each dose is administered with food or 15-30 minutes after tube-feeding, where appropriate. […] These patients had moderate to severe COVID-19-related pneumonia with hypoxia on supplemental oxygen.
Five patients were included in the analysis, and for comparison purposes, we used a control group with same-sex, same-severity patients (baseline characteristics). Univariate comparisons between the groups were performed with chi-square test for categorical variables and t-test or MannWhitney U-test for continuous variables, as appropriate. Time variables were compared with Cox proportional hazard regression, adjusted for age and background illnesses. CRP and lymphocyte changes were compared utilizing a repeated measures general linear model with a Bonferroni correction for multiple comparison.

[5] = tested on: SARS-CoV-2 clinical isolate (2019-nCoV/USA-WA1/2020); test: Anti-viral activity against SARS-CoV-2 in human bronchial epithelial cell (HBEC, EpiAirway) air-liquid-interface cultures, viral titer by TCID50; type: cell-based
[6] = of 6 moderate-to-severe patients treated, opaganib plus standard-of-care

Question: For `O=C(NCc1ccncc1)C12CC3CC(C1)CC(c1ccc(Cl)cc1)(C3)C2` [ABC294640, 3-(4-chlorophenyl)-adamantane-1-carboxylic acid (pyridin-4-ylmethyl)amide], which “thrombosis (blood clot length, weight and total thrombus score)” value (ARDS induced thrombosis) is on record?
Answer: reduction of thrombosis

Question: With `Cl.O=C(NCc1ccncc1)C12CC3CC(C1)CC(c1ccc(Cl)cc1)(C3)C2` [opaganib, 3-(4-chlorophenyl)-adamantane-1-carboxylic acid (pyridin-4-ylmethyl) amide, hydrochloride salt] as the compound, how does the cell viability [1] read?
Answer: remained viable

Question: What about the “solubility in water and ethyl acetate” value [2] of the same compound?
Answer: practically insoluble

Question: What about the hygroscopicity ([2]; solid) of the same compound?
Answer: non-hygroscopic

Question: What about the “proportion of patients reaching room air and no longer requiring oxygen support by Day 14” value ([3]; opaganib 500 mg Q12 h + standard of care, control arm 22.2%) of the same compound?
Answer: 52.6%

Question: And the “reduction from baseline of the medial total oxygen requirement (AUC) over 14 days” value ([3]; opaganib 500 mg Q12 h + standard of care, control arm 46.7%)?
Answer: 68.0%

Question: And the “proportion of patients discharged by Day 14” value ([3]; opaganib 500 mg Q12 h + standard of care, control arm 55.6%)?
Answer: 73.7%

Question: What about the “proportion of patients with 50% reduction in supplemental oxygen by day 14” value ([3]; opaganib 500 mg Q12 h + standard of care, control arm 66.7%) of the same compound?
Answer: 89.5%

Question: What about the “patients with adverse events such that study drug was terminated” value ([3]; opaganib arm, one in placebo arm) of the same compound?
Answer: Two

Question: What about the “patients with serious adverse events (SAEs) vs placebo arm” value ([3]; opaganib treatment arm compared with placebo arm) of the same compound?
Answer: fewer patients suffered from serious adverse events

Question: What about the “safety (top-line)” value ([3]; vs placebo arm) of the same compound?
Answer: safe, with no material safety differences

Question: What about the “HR for time to weaning from HFNC, cases vs. controls” value ([4]; Cox regression, 95% CI: 0.07-1.7, p=0.2) of the same compound?
Answer: 0.3

Question: And the “HR for time to ambient air, cases vs. controls” value ([4]; Cox regression, 95% CI: 0.15-1.5)?
Answer: 0.4

Question: And the “Clinical Assessment” value ([4]; Patient 1 (14 d), started as severe on maximal OptiFlow Apr. 3, 2020, RA = room air)?
Answer: Apr. 3, 2020; RA by 16/4. As of 22/4, one negative

Question: And the “Lymphocytes, most recent” value ([4]; Patient 1 (14 d on opaganib), baseline 1.6, Apr. 17, 2020)?
Answer: 2.8 (Apr. 17, 2020) 10^3/mm^3

Question: And the “CRP, most recent” value ([4]; Patient 1 (14 d on opaganib), baseline 15.1, Apr. 17, 2020)?
Answer: 1 (Apr. 17, 2020) mg/L

Question: What about the “Clinical Assessment” value ([4]; Patient 2 (14 d), started as severe+, planning for intubation Apr. 7, 2020, RA = room air, D/C = discharged) of the same compound?
Answer: Apr. 7, 2020; RA by Apr. 20, 2020, D/C on Apr. 22, 2020

Question: And the “Lymphocytes, most recent” value ([4]; Patient 2 (14 d on opaganib), baseline 1.1, Apr. 17, 2020)?
Answer: 2.1 (Apr. 17, 2020) 10^3/mm^3

Question: What about the “CRP, most recent” value ([4]; Patient 2 (14 d on opaganib), baseline 14.2, Apr. 17, 2020) of the same compound?
Answer: 4.8 (Apr. 17, 2020) mg/L

Question: And the “Clinical Assessment” value ([4]; Patient 3 (7 d), moderate-severe, on OptiFlow Apr. 13, 2020, D/C = discharged)?
Answer: Apr. 7, 200, D/C on Apr. 19, 2020

Question: And the “Lymphocytes, most recent” value ([4]; Patient 3 (7 d on opaganib), baseline 0.9, Apr. 17, 2020)?
Answer: 1.2 (Apr. 17, 2020) 10^3/mm^3

Question: And the “CRP, most recent” value ([4]; Patient 3 (7 d on opaganib), baseline 10.7, Apr. 17, 2020)?
Answer: 1.7 (Apr. 17, 2020) mg/L

Question: And the “Clinical Assessment” value ([4]; Patient 4 (11 d), started severe+ 70% OptiFlow on Apr. 13, 2020, RA = room air)?
Answer: RA on Apr. 22, 2020

Question: And the “Lymphocytes, most recent” value ([4]; Patient 4 (11 d on opaganib), baseline 1.2, Apr. 22, 2020)?
Answer: 1 (Apr. 22, 2020) 10^3/mm^3

Question: What about the “CRP, most recent” value ([4]; Patient 4 (11 d on opaganib), baseline 24.8, Apr. 22, 2020) of the same compound?
Answer: 17.4 (Apr. 22, 2020) mg/L

Question: What about the “Clinical Assessment” value ([4]; Patient 5 (2 d), started moderate on Apr. 13, 2020, nasal cannula, D/C = discharged, RA = room air) of the same compound?
Answer: opaganib; D/C on Apr. 14, 2020 on RA

Question: And the “Lymphocytes, most recent” value ([4]; Patient 6 (5 d on opaganib), baseline 1.35, Apr. 24, 2020)?
Answer: 1.96 (Apr. 24, 2020) 10^3/mm^3

Question: And the “CRP, most recent” value ([4]; Patient 6 (5 d on opaganib), baseline 12.2, Apr. 24, 2020)?
Answer: 6.8 (Apr. 24, 2020) mg/L

Question: And the “adverse event leading to discontinuation” value ([4]; Patient 7, also on HCQ and azithromycin, may or may not be related to opaganib, all 3 meds stopped)?
Answer: Diarrhea the next day, all 3 meds were stopped, followed by worsening SOB, on 75% OptiFlow.

Question: And the clinical improvement ([4]; all 6 moderate to-severe patients (patient #7 excepted))?
Answer: improved significantly

Question: And the “C-Reactive Protein (CRP) change” value ([4]; all six patients)?
Answer: reduction in C-Reactive Protein (CRP)

Question: What about the “time to ambient air” value ([4]; cases, controls 14.5 days) of the same compound?
Answer: 13 days

Question: And the “median time to weaning from high-flow nasal cannula (HFNC)” value ([4]; cases, controls 15 days, p=0.2)?
Answer: 10 days

Question: What about the “cases requiring mechanical ventilation” value ([4]; compared with 33% of controls) of the same compound?
Answer: none of the cases required mechanical ventilation

Question: And the “increase in lymphocyte count vs matched control group” value ([4]; five patients analysed vs same-sex, same-severity controls)?
Answer: significantly faster increase in lymphocyte count

Question: And the “number of patients back to breathing room air” value [4, 6]?
Answer: 5 patients

Question: What about the “number of patients discharged from hospital” value [4, 6] of the same compound?
Answer: 3 patients

Question: What about the safety and tolerability ([4]; small cohort of severe COVID-19 patients) of the same compound?
Answer: safe and well tolerated

Question: What about the “concentration at which complete inhibition of infectious virus production starts” value ([5]; SARS-CoV-2-infected HBEC, 3 days incubation) of the same compound?
Answer: 1 µg/mL

Question: And the infectious virus production ([5]; SARS-CoV-2-infected HBEC, 3 days incubation, 0.05 to 11.25 μg/ml)?
Answer: dose-dependent reduction

Question: What about the inhibition at 0.05 µg/mL ([5]; Severe acute respiratory syndrome coronavirus 2, Epithelial cell, read-out: inhibition of infectious virus production) of the same compound?
Answer: > 90%
